Measurements taken from PMC12860872, “Preclinical evaluation of DOTAGA.Glu.(FAPI)2 and DO3A.Glu.(FAPI)2 as theranostics with human dosimetry extrapolation to lutetium-177 and terbium-161 analogs” (European Journal of Nuclear Medicine and Molecular Imaging, 2025).
Where “and” joins values, the source holds several entries; their conditions need not be identical. Equal entries are not always repeated.

Experiments:
[1] = Extrapolated human dosimetry (OLINDA/EXM, ICRP-89 phantoms); parameters: TIAC average pancreas: unit not given beside the values; TIAC average stomach / TIAC average Small Intestine / TIAC average Left Column / TIAC average Rectum / TIAC average adrenal / TIAC average bone / TIAC average Red marrow / TIAC average salivary glands / TIAC average ROB / TIAC average Total Frac IA / TIAC average heart content / TIAC average heart wall / TIAC average liver / TIAC average spleen / TIAC average lung / TIAC average kidney: unit not given here
Method: To address inter-animal variability, the TIACs for each source organ were calculated from both the mean nTACs and the nTACs obtainend from fitting the mean ± 1 standard deviation (SD) of the normalized time-activity data, providing upper and lower bounds.
The mice-to-human TIAC extrapolation accounted for species-specific differences in relative source organ masses, m(organ), as compared to the total body weight (WB), for the mice (m) and human (h) models respectively.
(§1) The human organ masses, m(organ)h, were obtained from ICRP-89 adult male and female reference phantoms, while the murine organ masses, m(organ)m, were derived from the standard MOBY mouse model. The extrapolated human TIACs, TIACh were entered in the OLINDA/EXM software to compute the absorbed doses to target organs and the effective dose for adult male, female, and gender-averaged human models. […]
The TIACs, for [177Lu]Lu-DOTAGA.Glu.(FAPI)2 and [177Lu]Lu-DO3A.Glu.(FAPI)2, were determined by time integration of the nTACs. To account for the inter-animal variability, the TIACs for each source organ were calculated using both the mean nTACs and the nTACs obtainend from fitting the mean ±1 standard deviation (SD) of the normalized time-activity data. This approach provided the upper and the lower bounds for the estimated TIACs.
The mice-to-human TIAC extrapolation was obtained considering the different (species-specific) relative source organ masses, m(organ), as compared to the total body weight (WB), for the mice (m) and human (h) models respectively.
as §1, with “the” for “ICRP-89”, “models phantoms defined in ICRP-89,” for “phantoms,”, “TIACs values, TIACh, for each source organ” for “TIACs, TIACh”, “input into the kinetic module of” for “entered in”, “software (version 2.1, HERMES Medical Solutions AB, Stockholm, Sweden)” for “software”

[2] = cited from earlier work
[3] = ICRP 89 Adult Female, extrapolated
[4] = ICRP 89 Adult Male, extrapolated
[5] = human extrapolation, male-female range

For `N#C[C@@H]1CC(F)(F)CN1C(=O)CNC(=O)c1ccnc2ccc(OCCCCNC(=O)CC[C@H](NC(=O)CCC(C(=O)O)N3CCN(CC(=O)[O-])CCN(CC(=O)[O-])CCN(CC(=O)[O-])CC3)C(=O)NCCCCOc3ccc4nccc(C(=O)NCC(=O)N5CC(F)(F)C[C@H]5C#N)c4c3)cc12.[177Lu+3]` (some centres unmarked) [[^177Lu]Lu-DOTAGA.Glu.(FAPI)2], the “Absorbed dose (AD average) Adrenals” value [1, 3] was 1.46E-02 mGy/Mbq, the “Absorbed dose (AD average) Brain” value [1, 3] was 2.94E-02 mGy/Mbq and the “Absorbed dose (AD average) Breasts” value [1, 3] was 2.88E-02 mGy/Mbq. The “Absorbed dose (AD average) Esophagus” value [1, 3] was 3.06E-02 mGy/Mbq, the “Absorbed dose (AD average) Eyes” value [1, 3] was 2.94E-02 mGy/Mbq and the “Absorbed dose (AD average) Gallbladder Wall” value [1, 3] was 3.30E-02 mGy/Mbq. The “Absorbed dose (AD average) Heart Wall” value [1, 3] was 4.42E-02 mGy/Mbq, the “Absorbed dose (AD average) Kidneys” value [1, 3] was 4.97E-02 ± 0.002 mGy/Mbq and 4.97E-02 mGy/Mbq and the “Absorbed dose (AD average) Left colon” value [1, 3] was 1.05E-01 mGy/Mbq. For the same compound, the “Absorbed dose (AD average) Liver” value [1, 3] was 2.00E-01 ± 0.02 mGy/Mbq and 2.00E-01 mGy/Mbq, the “Absorbed dose (AD average) Lungs” value [1, 3] was 4.59E-02 ± 0.004 mGy/Mbq and 4.59E-02 mGy/Mbq and the “Absorbed dose (AD average) Osteogenic Cells” value [1, 3] was 8.92E-02 ± 0.01 mGy/Mbq and 8.92E-02 mGy/Mbq. The “Absorbed dose (AD average) Ovaries” value [1, 3] was 3.09E-02 mGy/Mbq, the “Absorbed dose (AD average) Pancreas” value [1, 3] was 3.90E-02 ± 0.002 mGy/Mbq and 3.90E-02 mGy/Mbq and the “Absorbed dose (AD average) Rectum” value [1, 3] was 1.07E-01 mGy/Mbq. For the same compound, the “Absorbed dose (AD average) Red Marrow” value [1, 3] was 3.24E-02 ± 0.003 mGy/Mbq and 3.24E-02 mGy/Mbq, the “Absorbed dose (AD average) Right colon” value [1, 3] was 6.88E-02 mGy/Mbq and the “Absorbed dose (AD average) Salivary Glands” value [1, 3] was 1.26E-01 ± 0.004 mGy/Mbq and 1.26E-01 mGy/Mbq. For the same compound, the “Absorbed dose (AD average) Small Intestine” value [1, 3] was 5.84E-02 ± 0.02 mGy/Mbq and 5.84E-02 mGy/Mbq, the “Absorbed dose (AD average) Spleen” value [1, 3] was 3.53E-02 ± 0.01 mGy/Mbq and 3.53E-02 mGy/Mbq and the “Absorbed dose (AD average) Stomach Wall” value [1, 3] was 4.24E-02 mGy/Mbq. The “Absorbed dose (AD average) Thymus” value [1, 3] was 3.04E-02 mGy/Mbq, the “Absorbed dose (AD average) Thyroid” value [1, 3] was 2.95E-02 mGy/Mbq and the “Absorbed dose (AD average) Total Body” value [1, 3] was 4.42E-02 ± 0.01 mGy/Mbq and 4.42E-02 mGy/Mbq. For the same compound, the “Absorbed dose (AD average) Urinary Bladder Wall” value [1, 3] was 3.05E-02 mGy/Mbq, the “Absorbed dose (AD average) Uterus” value [1, 3] was 3.10E-02 mGy/Mbq and the “Effective dose (average)” value [1, 3] was 4.71E-02. For the same compound, the “Absorbed dose (AD average) Adrenals” value [1, 4] was 1.17E-02 mGy/Mbq, the “Absorbed dose (AD average) Brain” value [1, 4] was 1.98E-02 mGy/Mbq and the “Absorbed dose (AD average) Esophagus” value [1, 4] was 2.11E-02 mGy/Mbq. For the same compound, the “Absorbed dose (AD average) Eyes” value [1, 4] was 1.97E-02 mGy/Mbq, the “Absorbed dose (AD average) Gallbladder Wall” value [1, 4] was 2.49E-02 mGy/Mbq and the “Absorbed dose (AD average) Heart Wall” value [1, 4] was 3.66E-02 mGy/Mbq. The “Absorbed dose (AD average) Kidneys” value [1, 4] was 4.08E-02 ± 0.002 mGy/Mbq and 4.08E-02 mGy/Mbq, the “Absorbed dose (AD average) Left colon” value [1, 4] was 8.56E-02 mGy/Mbq and the “Absorbed dose (AD average) Liver” value [1, 4] was 1.64E-01 ± 0.01 mGy/Mbq and 1.64E-01 mGy/Mbq. The “Absorbed dose (AD average) Lungs” value [1, 4] was 3.74E-02 ± 0.003 mGy/Mbq and 3.74E-02 mGy/Mbq, the “Absorbed dose (AD average) Osteogenic Cells” value [1, 4] was 9.26E-02 ± 0.01 mGy/Mbq and 9.26E-02 mGy/Mbq and the “Absorbed dose (AD average) Pancreas” value [1, 4] was 3.11E-02 ± 0.002 mGy/Mbq and 3.11E-02 mGy/Mbq. For the same compound, the “Absorbed dose (AD average) Prostate” value [1, 4] was 2.04E-02 mGy/Mbq, the “Absorbed dose (AD average) Rectum” value [1, 4] was 8.54E-02 mGy/Mbq and the “Absorbed dose (AD average) Red Marrow” value [1, 4] was 2.38E-02 ± 0.002 mGy/Mbq and 2.38E-02 mGy/Mbq. For the same compound, the “Absorbed dose (AD average) Right colon” value [1, 4] was 5.39E-02 mGy/Mbq, the “Absorbed dose (AD average) Salivary Glands” value [1, 4] was 1.03E-01 ± 0.004 mGy/Mbq and 1.03E-01 mGy/Mbq and the “Absorbed dose (AD average) Small Intestine” value [1, 4] was 4.17E-02 ± 0.01 mGy/Mbq and 4.17E-02 mGy/Mbq. For the same compound, the “Absorbed dose (AD average) Spleen” value [1, 4] was 2.87E-02 ± 0.01 mGy/Mbq and 2.87E-02 mGy/Mbq, the “Absorbed dose (AD average) Stomach Wall” value [1, 4] was 3.05E-02 mGy/Mbq and the “Absorbed dose (AD average) Testes” value [1, 4] was 1.95E-02 mGy/Mbq. The “Absorbed dose (AD average) Thymus” value [1, 4] was 2.03E-02 mGy/Mbq, the “Absorbed dose (AD average) Thyroid” value [1, 4] was 2.02E-02 mGy/Mbq and the “Absorbed dose (AD average) Total Body” value [1, 4] was 3.25E-02 ± 0.003 mGy/Mbq and 3.25E-02 mGy/Mbq. The “Absorbed dose (AD average) Urinary Bladder Wall” value [1, 4] was 2.03E-02 mGy/Mbq, the “Effective dose (average)” value ([1]; ICRP 89 Adult Male, extrapolated, in mSv/MBq (unit assumed)) was 3.40E-02 and the absorbed dose kidneys [1, 5] was 0.04–0.05 Gy/GBq. For the same compound, the absorbed dose liver [1, 5] was 0.16–0.20 Gy/GBq, the “absorbed dose salivary glands” value [1, 5] was 0.10–0.13 Gy/GBq and the “total body and effective doses” value [1, 5] was 0.033–0.044 Gy/GBq. The “TIAC average Left Column” value ([1]; human female, extrapolated) was 0.1373, the “TIAC average ROB” value ([1]; human female, extrapolated) was 18.6076 and the “TIAC average Rectum” value ([1]; human female, extrapolated) was 0.1420. For the same compound, the “TIAC average Red marrow” value ([1]; human female, extrapolated) was 0.2030, the “TIAC average Small Intestine” value ([1]; human female, extrapolated) was 0.1803 and the “TIAC average Total Frac IA” value ([1]; human female, extrapolated) was 25.6850. For the same compound, the TIAC average adrenal ([1]; human female, extrapolated) was 0.0011, the TIAC average bone ([1]; human female, extrapolated) was 4.9073 and the “TIAC average heart content” value ([1]; human female, extrapolated) was 0.0834. For the same compound, the “TIAC average heart wall” value ([1]; human female, extrapolated) was 0.0889, the TIAC average kidney ([1]; human female, extrapolated) was 0.1445 and the TIAC average liver ([1]; human female, extrapolated) was 3.1244. The TIAC average lung ([1]; human female, extrapolated) was 0.4651, the TIAC average pancreas ([1]; human female, extrapolated) was 0.0460 and the “TIAC average salivary glands” value ([1]; human female, extrapolated) was 0.1012. For the same compound, the TIAC average spleen ([1]; human female, extrapolated) was 0.0480, the TIAC average stomach ([1]; human female, extrapolated) was 0.0626 and the “TIAC average Left Column” value ([1]; human male, extrapolated) was 0.1129. For the same compound, the “TIAC average ROB” value ([1]; human male, extrapolated) was 15.0586, the “TIAC average Rectum” value ([1]; human male, extrapolated) was 0.1129 and the “TIAC average Red marrow” value ([1]; human male, extrapolated) was 0.2169. The “TIAC average Small Intestine” value ([1]; human male, extrapolated) was 0.1684, the “TIAC average Total Frac IA” value ([1]; human male, extrapolated) was 25.6850 and the TIAC average adrenal ([1]; human male, extrapolated) was 0.0009. The TIAC average bone ([1]; human male, extrapolated) was 5.5459, the “TIAC average heart content” value ([1]; human male, extrapolated) was 0.0945 and the “TIAC average heart wall” value ([1]; human male, extrapolated) was 0.0965. The TIAC average kidney ([1]; human male, extrapolated) was 0.1339, the TIAC average liver ([1]; human male, extrapolated) was 3.3017 and the TIAC average lung ([1]; human male, extrapolated) was 0.4829. The TIAC average pancreas ([1]; human male, extrapolated) was 0.0441, the “TIAC average salivary glands” value ([1]; human male, extrapolated) was 0.1010 and the TIAC average spleen ([1]; human male, extrapolated) was 0.0456. For the same compound, the TIAC average stomach ([1]; human male, extrapolated) was 0.0557, the “absorbed dose left colon” value ([2]; human dosimetry, mean) was 0.31 ± 0.12 Gy/GBq and the “absorbed dose right colon” value ([2]; human dosimetry, mean) was 0.22 ± 0.09 Gy/GBq. For the same compound, the “biological half-life in bone metastases” value ([2]; human studies) was 19.5 ± 7.3 h and the “biological half-life in soft tissue metastases” value ([2]; human studies) was 22.1 ± 6.7 h.
